Source: patent US20080152715A1, “Method for preparing nanoparticles comprising vitamin K and poly-isopropyl-butyl methacrylate-acrylic acid copolymer with supercritical fluid using molecular association theory” (Seoul National Universtiy Industry Foundation, priority 2006, published 2008)

Experiment: Particle size measurement using a Particle Size Analyzer
Assay type: physicochemical
Settings: pretreated vitamin K, before the supercritical process
Description: The pretreated vitamin K has a particle size of 50 to 100 microns. In Examples, the particle sizes of vitamin K nanoparticles prepared by the following conditions were measured using a Particle Size Analyzer. Here, spherical fine particles having a particle size of 50 to 300 nm can be obtained according to the presence or absence of a poly-isopropyl-butyl methacrylate-acrylic acid copolymer as a biodegradable polymer, and the operating conditions.
As shown in the following Table 1, the present Examples represent the operating conditions of the reactor in the step of formation of a spherical structure. The temperature and the pressure of the reactor must be each above 304.2 K and 73.8 bar, which correspond to the critical temperature and the critical pressure of carbon dioxide, respectively. The operating parameters in the reactor are the temperature and the pressure in reactor, the amount of carbon dioxide as a supercritical fluid, and the amount of solution prepared in the preparation step. In Example 1, the solution contains vitamin K of 0.0016 wt % alone without a biodegradable polymer. In Example 2 to 8, the solution contains both of vitamin K of 0.0016 wt % and the poly-isopropyl-butyl methacrylate-acrylic acid copolymer of 0.0014 wt % as a biodegradable polymer. […] In Examples 1 and 3, the change was measured at 313K and 323K by adjusting the reactor temperature. […]

vitamin K [pretreated vitamin K]
particle size: 50 to 100 microns
